Laboratory results reported in patent US9765105B2, “Macrolide compound” (Pulike Biological Engineering, Inc., priority 2013, dated 2017).

Experiments:
Test in all cases: in vitro susceptibility, MIC by mini broth dilution
Format in all cases: cell-based
[1] = test system: Staphylococcus aureus CVCC26003; settings: strain CVCC26003
Outline: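 MICs were determined by mini broth dilution under NCCLS standards in CAMHB, using revived S. aureus CVCC26003 subcultured 20 h at 35° C. Compounds were two-fold serially diluted in DMSO across 11 wells, with duplicate rows. Bacterial suspension was diluted 1:200 in medium before inoculation.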

[2] = test system: Actinobacillus pleuropneumoniae CVCC262; settings: strain CVCC262
Outline: (§1)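 MICs determined by mini broth dilution per NCCLS (now CLSI) standards. Strains revived from −20° C, subcultured twice on solid medium at 35° C for 20 h; compounds two-fold serially diluted in DMSO over 11 gradients, duplicate rows, bacterial suspension diluted 1:200 in liquid medium.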

Haemophilus parasuis = test system: Haemophilus parasuis
Outline: as §1

[3] = test system: Pasteurella multocida CVCC399; settings: strain CVCC399
Outline: as §1

[4] = test system: Streptococcus equines CVCC556; settings: strain CVCC556
Outline: as §1

Structure (SMILES)	MIC values, Staphylococcus aureus CVCC26003 [1]	MIC values, Actinobacillus pleuropneumoniae CVCC262 [2] [ug/mi]	MIC values, Haemophilus parasuis (Haemophilus parasuis)	MIC values, Pasteurella multocida CVCC399 [3]	MIC values, Streptococcus equines CVCC556 [4]
CC[C@H]1OC(=O)[C@H](C)[C@@H](O[C@H]2C[C@@](C)(OC)[C@](O)(CNc3ccc(C)c(C)c3)[C@H](C)O2)[C@H](C)[C@@H](O[C@@H]2O[C@H](C)C[C@H](N(C)C)[C@H]2O)[C@](C)(O)C[C@@H](C)NC[C@H](C)[C@@H](O)[C@]1(C)O [syzx-84, (2R,3S,4R,5S,8R,10R,11R,12S,13S,14R)-13-[(2,6-dideoxy-3-C-methyl-3-O-methyl-4-C-[(3,4-dimethylphenyl-amino)-methyl]-α-L-ribopyranosyl)oxy]-2-ethyl-3,4,10-trihydroxy-3,5,8,10,12,14-hexamethyl-11-[[3,4,6-trideoxy-3-(dimethylamino)-β-D-xylo-hexopyranosy]oxy]-1-oxa-7-azacyclopentadecan-15-one]	≦0.25 ug/mi	2	≦0.25 ug/mi	0.25 ug/mi	≦0.25 ug/mi
CCCN1C[C@H](C)[C@@H](O)[C@](C)(O)[C@@H](CC)OC(=O)[C@H](C)[C@@H](O[C@H]2C[C@@](C)(OC)[C@](O)(CNCc3ccc(C(F)(F)F)cc3)[C@H](C)O2)[C@H](C)[C@@H](O[C@@H]2O[C@H](C)C[C@H](N(C)C)[C@H]2O)[C@](C)(O)C[C@H]1C [syzx-116]	0.25 ug/mi	0.25	0.25 ug/mi	1 ug/mi	0.25 ug/mi
CCCN1C[C@H](C)[C@@H](O)[C@](C)(O)[C@@H](CC)OC(=O)[C@H](C)[C@@H](O[C@H]2C[C@@](C)(OC)[C@](O)(CNc3cccc(Br)c3)[C@H](C)O2)[C@H](C)[C@@H](O[C@@H]2O[C@H](C)C[C@H](N(C)C)[C@H]2O)[C@](C)(O)C[C@H]1C [syzx-223]	0.25 ug/mi	0.25	0.25 ug/mi	0.5 ug/mi	0.25 ug/mi
CC[C@H]1OC(=O)[C@H](C)[C@@H](O[C@H]2C[C@@](C)(OC)[C@](O)(CNCCCNCCc3ccc(S(C)(=O)=O)cc3)[C@H](C)O2)[C@H](C)[C@@H](O[C@@H]2O[C@H](C)C[C@H](N(C)C)[C@H]2O)[C@](C)(O)C[C@@H](C)NC[C@H](C)[C@@H](O)[C@]1(C)O [Syzx-61, (2R,3S,4R,5S,8R,10R,11R,12S,13S,14R)-13-[(2,6-dideoxy-3-C-methyl-3-O-methyl-4-C-[[(4-mesylphenylethylamino)propylamino]-methyl]-α-L-ribopyranosyl)oxy]-2-ethyl-3,4,10-trihydroxy-3,5,8,10,12,14-hexamethyl-11-[[3,4,6-trideoxy-3-(dimethylamino)-β-D-xylo-hexopyranosy]oxy]-1-oxa-7-azacyclopentadecan-15-one]	≦0.25 ug/mi	32	≦0.25 ug/mi	1 ug/mi	0.5 ug/mi
CCCN1C[C@H](C)[C@@H](O)[C@](C)(O)[C@@H](CC)OC(=O)[C@H](C)[C@@H](O[C@H]2C[C@@](C)(OC)[C@](O)(CNCCCN3CCOCC3)[C@H](C)O2)[C@H](C)[C@@H](O[C@@H]2O[C@H](C)C[C@H](N(C)C)[C@H]2O)[C@](C)(O)C[C@H]1C [syzx-188]	0.5 ug/mi	0.5	0.5 ug/mi	1 ug/mi	0.25 ug/mi
CC[C@H]1OC(=O)[C@H](C)[C@@H](O[C@H]2C[C@@](C)(OC)[C@](O)(CNC(C)CCCN(C)C)[C@H](C)O2)[C@H](C)[C@@H](O[C@@H]2O[C@H](C)C[C@H](N(C)C)[C@H]2O)[C@](C)(O)C[C@@H](C)NC[C@H](C)[C@@H](O)[C@]1(C)O (stereo partly drawn) [syzx-59, (2R,3S,4R,5S,8R,10R,11R,12S,13S,14R)-13-[(2,6-dideoxy-3-C-methyl-3-O-methyl-4-C-[(1-methyl-4-dimethylaminobutylamino)-methyl]-α-L-ribopyranosyl)oxy]-2-ethyl-3,4,10-trihydroxy-3,5,8,10,12,14-hexamethyl-11-[[3,4,6-trideoxy-3-(dimethylamino)-β-D-xylo-hexopyranosy]oxy]-1-oxa-7-azacyclopentadecan-15-one]	1 ug/mi	32	0.5 ug/mi	2 ug/mi	2 ug/mi
CC[C@H]1OC(=O)[C@H](C)[C@@H](O[C@H]2C[C@@](C)(OC)[C@](O)(Cn3ccnc3)[C@H](C)O2)[C@H](C)[C@@H](O[C@@H]2O[C@H](C)C[C@H](N(C)C)[C@H]2O)[C@](C)(O)C[C@@H](C)NC[C@H](C)[C@@H](O)[C@]1(C)O [syzx-9, (2R,3S,4R,5S,8R,10R,11R,12S,13S,14R)-13-[(2,6-dideoxy-3-C-methyl-3-O-methyl-4-C-[(imidazolyl)methyl]-α-L-ribopyranosyl)oxy]-2-ethyl-3,4,10-trihydroxy-3,5,8,10,12,14-hexamethyl-11-[[3,4,6-trideoxy-3-(dimethylamino)-β-D-xylo-hexopyranosy]oxy]-1-oxa-7-azacyclopentadecan-15-one]	≦0.25 ug/mi	0.5	≦0.25 ug/mi	≦0.25 ug/mi	≦0.25 ug/mi
CC[C@H]1OC(=O)[C@H](C)[C@@H](O[C@H]2C[C@@](C)(OC)[C@](O)(CNCc3cccc(N)c3)[C@H](C)O2)[C@H](C)[C@@H](O[C@@H]2O[C@H](C)C[C@H](N(C)C)[C@H]2O)[C@](C)(O)C[C@@H](C)NC[C@H](C)[C@@H](O)[C@]1(C)O [syzx-72, (2R,3S,4R,5S,8R,10R,11R,12S,13S,14R)-13-[(2,6-dideoxy-3-C-methyl-3-O-methyl-4-C-[(3-aminobenzyl-amino)-methyl]-α-L-ribopyranosyl)oxy]-2-ethyl-3,4,10-trihydroxy-3,5,8,10,12,14-hexamethyl-11-[[3,4,6-trideoxy-3-(dimethylamino)-β-D-xylo-hexopyranosy]oxy]-1-oxa-7-azacyclopentadecan-15-one]	1 ug/mi	16	0.25 ug/mi	1 ug/mi	≦0.25 ug/mi
CC[C@H]1OC(=O)[C@H](C)[C@H](O[C@H]2C[C@@](C)(OC)[C@](O)(CNCCc3ccncc3)[C@H](C)O2)[C@H](C)[C@@H](O[C@@H]2O[C@H](C)C[C@H](N(C)C)[C@H]2O)[C@](C)(O)C[C@@H](C)NC[C@H](C)[C@@H](O)[C@]1(C)O [syzx-64]	≦0.25 ug/mi	0.5	≦0.25 ug/mi	0.25 ug/mi	0.25 ug/mi
CCCN1C[C@H](C)[C@@H](O)[C@](C)(O)[C@@H](CC)OC(=O)[C@H](C)[C@@H](O[C@H]2C[C@@](C)(OC)[C@](O)(CN3CCOCC3)[C@H](C)O2)[C@H](C)[C@@H](O[C@@H]2O[C@H](C)C[C@H](N(C)C)[C@H]2O)[C@](C)(O)C[C@H]1C [syzx-204]	4 ug/mi	4	4 ug/mi	4 ug/mi	0.5 ug/mi
CCCN1C[C@H](C)[C@@H](O)[C@](C)(O)[C@@H](CC)OC(=O)[C@H](C)[C@@H](O[C@H]2C[C@@](C)(OC)[C@](O)(CNc3cc(F)ccc3[N+](=O)[O-])[C@H](C)O2)[C@H](C)[C@@H](O[C@@H]2O[C@H](C)C[C@H](N(C)C)[C@H]2O)[C@](C)(O)C[C@H]1C [syzx-226]	2 ug/mi	4	4 ug/mi	8 ug/mi	0.25 ug/mi
CCCN1C[C@H](C)[C@@H](O)[C@](C)(O)[C@@H](CC)OC(=O)[C@H](C)[C@@H](O[C@H]2C[C@@](C)(OC)[C@](O)(CNc3ccc(Cl)nc3)[C@H](C)O2)[C@H](C)[C@@H](O[C@@H]2O[C@H](C)C[C@H](N(C)C)[C@H]2O)[C@](C)(O)C[C@H]1C [syzx-208]	4 ug/mi	4	4 ug/mi	4 ug/mi	0.5 ug/mi
CC[C@H]1OC(=O)[C@H](C)[C@@H](O[C@H]2C[C@@](C)(OC)[C@](O)(CNCc3cccnc3)[C@H](C)O2)[C@H](C)[C@@H](O[C@@H]2O[C@H](C)C[C@H](N(C)C)[C@H]2O)[C@](C)(O)C[C@@H](C)NC[C@H](C)[C@@H](O)[C@]1(C)O [syzx-21, (2R,3S,4R,5S,8R,10R,11R,12S,13S,14R)-13-[(2,6-dideoxy-3-C-methyl-3-O-methyl-4-C-[(3-pyridinylmethylamino)methyl]-α-L-ribopyranosyl)oxy]-2-ethyl-3,4,10-trihydroxy-3,5,8,10,12,14-hexamethyl-11-[[3,4,6-trideoxy-3-(dimethylamino)-β-D-xylo-hexopyranosy]oxy]-1-oxa-7-azacyclopentadecan-15-one]	0.5 ug/mi	32	≦0.25 ug/mi	≦0.25 ug/mi	≦0.25 ug/mi
